System: 565726-208-R1-J5-PDC complex spheroids, growth inhibition
Assay: Anticancer human tumor 565726-208-R1-J5-PDC patient-derived pancreatic adenocarcinoma cell line growth inhibition [RAS]
Details: for IC50: curve of first compound; for viability, T/C: stronger effect = lower value; active = viability on the fitted dose curve at most 10% of control; inactive = the rest
From the text: RAS pathway inhibitors in Combinations in Complex Spheroids
A high-throughput screen of multi-cell type tumor spheroids was designed to identify active combinations of RAS pathway inhibitors and targeted small molecules. Complex spheroids include a stromal component modeled by human endothelial cells (HUVEC) and fibroblasts modeled by human mesenchymal stem cells (MSCs). The concentration ranges selected for each drug and investigational agent were based upon clinically achievable concentrations if the clinical Cmax of the agent was known.
Compounds. The drugs and investigational agents: abemaciclib (NSC768073), cobimetinib (NSC768068), divarasib (GDC6063, NSC841802), docetaxel (NSC628503), GDC-1971 (RLY-1971, NSC841576), gemcitabine (NSC613327), inavolisib (NSC800729), ipatasertib (NSC767898), KB-0742 (NSC834161), MRTX-1133 (NSC836407), osimertinib (NSC779217), RMC-4630 (NSC839698), RMC-6236 (NSC851965), RMC-6291 (NSC852671), Ro-3306 (NSC812927), sapanisertib (NSC764658), SN-38 (NSC673596), staurosporine (NSC755774), SY5609 (NSC837396), and tovorafenib (DAY101, NSC766906), were obtained from the National Cancer Institute (NCI) Developmental Therapeutics Program Chemical Repository. The FDA-approved anticancer drug set is available from the NCI Developmental Therapeutics Program. […] The stock solutions were prepared in dimethyl sulfoxide (DMSO, Sigma-Aldrich, St. Louis, MO, cat. D2650) at 800-fold the tested concentration and stored at -70 degrees C prior to their use. All drugs and investigational agents were tested over a range starting from a high concentration at or near the clinical Cmax and decreasing in half-log increments. If the clinical Cmax for an agent had not been determined, the highest concentration tested was 10 microM.
Cell Culture. All cells were maintained in an incubator at 37 degrees C and 5% CO2 with 95% humidity. The PDC lines were cultured according to standard operating procedures established by the NCI PDMR. All PDCs were thawed and cultured in Matrigel-coated flasks prepared with a working solution of 1X Ham's F-12 nutrient mix, without supplementation (Invitrogen, Waltham, MA, cat. 11765054), 100 U/mL penicillin-streptomycin (Invitrogen, cat. 15140122), and 2.5% Matrigel (Corning Inc., Corning, NY, cat. 354248) for the first three passages. The 362531-283-R-J2-PDC and 782815-120-R-J1-PDC lines were cultured in 6C/Colon 1B media, which includes advanced DMEM/F-12 (Thermo Fisher Scientific, cat. 12634028), 10 mM HEPES (Thermo Fisher Scientific, cat. 15630080), 1X GlutaMAX supplement (Thermo Fisher Scientific, cat. 35050061), 0.1 mg/mL primocin (InvivoGen, San Diego, CA, cat. ant-pm-2), 10% defined fetal bovine serum, heat inactivated (HyClone Laboratories Inc., Logan, UT, cat. SH30070.03HI), 50% L-WRN conditioned media (ATCC, cat. CRL-3276), 1.25 mM N-Acetyl-L-cysteine (Sigma-Aldrich, cat. A9165), 10 mM nicotinamide (Sigma-Aldrich, cat. N0636), 1X B-27 supplement (Thermo Fisher Scientific, cat. 17504044), 1X N-2 supplement (Thermo Fisher Scientific, cat. 17502048), 50 ng/mL human EGF (Thermo Fisher Scientific, cat. PHG0311), and 10 microM Y-27632 dihydrochloride (Tocris Bioscience, cat. 1254). The K12877-001-R-J1-PDC line was cultured in 6I media, which includes all 6C/Colon 1B media plus 10 ng/mL human FGF-10 (PeproTech, cat. 100-26), 1 ng/mL human FGF-2 (PeproTech, cat. 100-18B), 1 µM prostaglandin E2 (Tocris Bioscience, cat. 2296), […] hydrocortisone (Sigma-Aldrich, cat. H4001), and […] bovine insulin (Sigma-Aldrich, cat. I6634). The K86415-001-R-J1-PDC line was cultured in 6D media, which includes all 6C/Colon 1B media components minus the L-WRN conditioned media. The 485176-168-R4-J1-PDC was cultured in PANC media, which includes all 6C/Colon 1B media plus 100 ng/mL human FGF-10 (PeproTech, cat. 100-26), 500 nM SB-431542 (Selleckchem, cat. S1067), and 10 nM gastrin (Tocris Bioscience, cat. 3006). […]

[1] = second compound 0.0316 µM, first compound 0.0316 µM
[2] = second compound 0.0316 µM, first compound 0.1 µM
[3] = second compound 0.0316 µM, first compound 0.316 µM
[4] = second compound 0.0316 µM, first compound 1 µM
[5] = second compound 0.1 µM, first compound 0.0316 µM
[6] = second compound 0.1 µM, first compound 0.1 µM
[7] = second compound 0.1 µM, first compound 0.316 µM
[8] = second compound 0.1 µM, first compound 1 µM
[9] = second compound 0.316 µM, first compound 0.0316 µM
[10] = second compound 0.316 µM, first compound 0.1 µM
[11] = second compound 0.316 µM, first compound 0.316 µM
[12] = second compound 0.316 µM, first compound 1 µM
[13] = second compound 1 µM, first compound 0.0316 µM
[14] = second compound 1 µM, first compound 0.1 µM
[15] = second compound 1 µM, first compound 0.316 µM
[16] = second compound 1 µM, first compound 1 µM
[17] = second compound 3.16 µM, first compound 0.0316 µM
[18] = second compound 3.16 µM, first compound 0.1 µM
[19] = second compound 3.16 µM, first compound 0.316 µM
[20] = second compound 3.16 µM, first compound 1 µM
[21] = second compound 10 µM, first compound 0.0316 µM
[22] = second compound 10 µM, first compound 0.1 µM
[23] = second compound 10 µM, first compound 0.316 µM
[24] = second compound 10 µM, first compound 1 µM
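Also: spheroids exposed to compounds for seven days before readout.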

CC(Nc1ccc2c(c1)OCCn1cc(N3C(=O)OCC3C(F)F)nc1-2)C(N)=O (centres undefined) + C#Cc1c(F)ccc2cc(O)cc(-c3ncc4c(N5CC6CCC(C5)N6)nc(OCC56CCCN5CC(F)C6)nc4c3F)c12
527 nM: IC50 (second compound 10 µM)
> 10000 nM: IC50 (second compound 0.0316 µM) | IC50 (second compound 0.1 µM) | IC50 (second compound 0.316 µM) | IC50 (second compound 1 µM)
inactive: viability, T/C [1] 73.2% | viability, T/C [2] 101% | viability, T/C [3] 86.5% | viability, T/C [4] 60.4% | viability, T/C (second compound 0.0316 µM, first compound 3.16 µM) 92.9% | viability, T/C (second compound 0.0316 µM, first compound 10 µM) 70.2% | viability, T/C [5] 87.5% | viability, T/C [6] 102% | viability, T/C [7] 73.9% | viability, T/C [8] 53.5% | viability, T/C (second compound 0.1 µM, first compound 3.16 µM) 81.2% | viability, T/C (second compound 0.1 µM, first compound 10 µM) 65.5% | viability, T/C [9] 105% | viability, T/C [10] 109% | viability, T/C [11] 72.9% | viability, T/C [12] 55.1% | viability, T/C (second compound 0.316 µM, first compound 3.16 µM) 69.2% | viability, T/C (second compound 0.316 µM, first compound 10 µM) 62.5% | viability, T/C [13] 114% | viability, T/C [14] 102% | viability, T/C [15] 57.2% | viability, T/C [16] 60.2% | viability, T/C (second compound 1 µM, first compound 3.16 µM) 47.4% | viability, T/C (second compound 1 µM, first compound 10 µM) 54.6% | viability, T/C [17] 90.5% | viability, T/C [18] 80% | viability, T/C [19] 56.4% | viability, T/C [20] 38.7% | viability, T/C (second compound 3.16 µM, first compound 3.16 µM) 35.6% | viability, T/C (second compound 3.16 µM, first compound 10 µM) 45.3% | viability, T/C [21] 60.8% | viability, T/C [22] 68.9% | viability, T/C [23] 51.1% | viability, T/C [24] 46.7% | viability, T/C (second compound 10 µM, first compound 3.16 µM) 30.7% | viability, T/C (second compound 10 µM, first compound 10 µM) 34.7%
487 nM: IC50 (second compound 3.16 µM)

O=C(c1ccc(F)c(F)c1Nc1ccc(I)cc1F)N1CC(O)([C@@H]2CCCCN2)C1 + C#Cc1c(F)ccc2cc(O)cc(-c3ncc4c(N5CC6CCC(C5)N6)nc(OCC56CCCN5CC(F)C6)nc4c3F)c12
95 nM: IC50 (second compound 0.316 µM)
> 1000 nM: IC50 (second compound 0.1 µM)
593 nM: IC50 (second compound 0.0316 µM)
76.8 nM: IC50 (second compound 1 µM)
83.4 nM: IC50 (second compound 3.16 µM)
26.3 nM: IC50 (second compound 10 µM)
inactive: viability, T/C (second compound 0.0316 µM, first compound 0.00316 µM) 118% | viability, T/C (second compound 0.0316 µM, first compound 0.01 µM) 131% | viability, T/C [1] 74.8% | viability, T/C [2] 76.5% | viability, T/C [3] 78.3% | viability, T/C [4] 33.3% | viability, T/C (second compound 0.1 µM, first compound 0.00316 µM) 116% | viability, T/C (second compound 0.1 µM, first compound 0.01 µM) 138% | viability, T/C [5] 69.1% | viability, T/C [6] 62.3% | viability, T/C [7] 63.6% | viability, T/C [8] 34.8% | viability, T/C (second compound 0.316 µM, first compound 0.00316 µM) 117% | viability, T/C (second compound 0.316 µM, first compound 0.01 µM) 118% | viability, T/C [9] 67.3% | viability, T/C [10] 53.9% | viability, T/C [11] 62.7% | viability, T/C [12] 31% | viability, T/C (second compound 1 µM, first compound 0.00316 µM) 133% | viability, T/C (second compound 1 µM, first compound 0.01 µM) 103% | viability, T/C [13] 62.8% | viability, T/C [14] 43% | viability, T/C [15] 58% | viability, T/C [16] 28.8% | viability, T/C (second compound 3.16 µM, first compound 0.00316 µM) 109% | viability, T/C (second compound 3.16 µM, first compound 0.01 µM) 91.7% | viability, T/C [17] 65.6% | viability, T/C [18] 38.8% | viability, T/C [19] 43.7% | viability, T/C [20] 17.8% | viability, T/C (second compound 10 µM, first compound 0.00316 µM) 88.1% | viability, T/C (second compound 10 µM, first compound 0.01 µM) 63% | viability, T/C [21] 39% | viability, T/C [22] 38.9% | viability, T/C [23] 22.1%
active: viability, T/C [24] 5.94%
